# Source: patent publication US20230159527A1, “COMPOUNDS AS BCL-2 INHIBITORS” (Fochon Pharmaceuticals, Ltd., priority 2020, published 2023)
# Where two headings read alike, the source gives them in different places.
# Key:
# Toledo cells = test: Cell proliferation assay, Toledo cells (MTS, 72 h); assay type: cell-based; settings: Toledo cells, MTS, read-out: Toledo IC50
# Method in brief: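 Toledo cells (30000/well, RPMI-1640 with 10% FBS) were preincubated for 4 h. They were then exposed to nine compound concentrations from 10000 to 1.5 nM for 72 h at 37 °C, 5% CO2. MTS was added for 2 h and absorbance read at 490 nm to give IC50.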
# RS4;11-BCL-2 G101V cells = test: Cell proliferation assay, engineered RS4;11 cells stably overexpressing BCL-2 G101V (MTS, 168 h); assay type: cell-based; settings: read-out: RS4, 11 BCL2- G101V
# Protocol: MTS testing kit was purchased from Promega (Madison, Wis., USA). The RPMI-1640, Fetal bovine serum and Penicillin-Streptomycin were purchased from BI (Biological Industries, Beit Haemek, Israel). Puromycin was purchased from Beyotime (shanghai, China). Dimethyl sulfoxide (DMSO) was purchased from Sigma (St. Louis, Mo., USA). RS4;1l-BCL-2 G101V and RS4;11-BCL-2 F104L cells were cultured in RPM11640 supplemented with 1 ug/mL puromycin, 100 U/mL Penicillin-Streptomycin and 10% FBS.
# To investigate whether a compound is able to inhibit the activity of BCL-2 mutation in cells, a mechanism-based assay using engineered cell lines stably overexpressing BCL-2 mutation ([…] and […]) was developed. In this assay, the inhibition of BCL-2 mutation was reflected by the inhibition of cell proliferation of RS4;11-BCL-2 G101V and RS4;11-BCL-2 F104L cells. Cells were plated into 96-well plates at optimized cell density (RS4;11-BCL-2 G101V: 5000 cells/well; RS4;11-BCL-2 F104L: 5000 cells/well). Plates were incubated at 37° C., with 5% CO2 for 4 h. Compounds were serially diluted to the final-concentrations of 10000, 3333.3, 1111.1, 370.4, 123.5, 41.2, 13.7, 4.6 and 1.4 nM and added to the plates. Plates were incubated at 37° C., with 5% CO2 for 168 h. 20 μl MTS was added into each well and the plates were incubated at 37° C., with 5% CO2 exactly for 2 h. The absorbance was measured by a microplate reader at 490 nm. IC50 values were calculated using GraphPad Prism 5.0 software.
Compound,IC50 (Toledo cells; Homo sapiens) [nM],"IC50 (RS4;11-BCL-2 G101V cells; Homo sapiens, RS4-11, 168 h) [nM]",IC50 (RS4;11-BCL-2 G101V cells) [nM],IC50 (Toledo cells) [nM]
"CC(C)c1ccccc1[C@@H]1CCC[C@@H]1N1CC2(CCN(c3ccc(C(=O)NS(=O)(=O)c4cc5c(c([N+](=O)[O-])c4)N[C@@H]([C@H]4CC[C@](C)(O)CC4)CO5)c(Oc4cc5c(F)c[nH]c5nc4Cl)c3)CC2)C1 (single isomer, unassigned) [Example D-106, 2-((6-chloro-3-fluoro-1H-pyrrolo [2,3-b]pyridin-5-yl)oxy)-N-(((S)-3-((1r,4S)-4-hydroxy-4-methylcyclohexyl)-5-nitro-3,4-dihydro-2H-benzo[b][1,4]oxazin-7-yl)sulfonyl)-4-(2-((1S,2S or 1R,2R)-2-(2-isopropylphenyl)cyclopentyl)-2,7-diazaspiro[3.5]nonan-7-yl)benzamide]",1,14,,
"CC(C)c1ccccc1[C@@H]1CN(S(C)(=O)=O)CCN1C1CC2(CCN(c3ccc(C(=O)NS(=O)(=O)c4cc5c(c([N+](=O)[O-])c4)N[C@@H]([C@H]4CC[C@](C)(O)CC4)CO5)c(Oc4cnc5[nH]cc(F)c5c4)c3)CC2)C1 (single isomer, unassigned) [Example D-80, 2-((3-fluoro-1H-pyrrolo[2,3-b]pyridin-5-yl)oxy)-N-(((S)-3-((1r,4S)-4-hydroxy-4-methylcyclohexyl)-5-nitro-3,4-dihydro-2H-benzo[b] [1,4]oxazin-7-yl)sulfonyl)-4-(2-((R or S)-2-(2-isopropylphenyl)-4-(methylsulfonyl)piperazin-1-yl)-7-azaspiro[3.5]nonan-7-yl)benzamide]",1,8,,
"CC(C)c1ccccc1[C@@H]1CCCN1C1CC2(CCN(c3ccc(C(=O)NS(=O)(=O)c4cc5c(c([N+](=O)[O-])c4)N[C@@H]([C@H]4CC[C@](C)(O)CC4)CO5)c(Oc4cc5cc[nH]c5nc4O[C@H]4CCN(C)C4)c3)CC2)C1 (single isomer, unassigned) [Example D-226, N-(((S)-3-((1r,4S)-4-hydroxy-4-methylcyclohexyl)-5-nitro-3,4-dihydro-2H-benzo[b][1,4]oxazin-7-yl)sulfonyl)-4-(2-((R or S)-2-(2-isopropylphenyl)pyrrolidin-1-yl)-7-azaspiro[3.5]nonan-7-yl)-2-((6-(((5)-1-methylpyrrolidin-3-yl)oxy)-1H-pyrrolo[2,3-b]pyridin-5-yl)oxy)benzamide]",1,13,,
"CC(C)c1ccccc1[C@@H]1CCCN1C1CC2(CCN(c3ccc(C(=O)NS(=O)(=O)c4cc5c(c([N+](=O)[O-])c4)N[C@@H]([C@H]4CC[C@](C)(O)CC4)CO5)c(Oc4cc5cc[nH]c5nc4OC4CN(C)C4)c3)CC2)C1 (single isomer, unassigned) [Example D-201, N-(((S)-3-((1r,4S)-4-hydroxy-4-methylcyclohexyl)-5-nitro-3,4-dihydro-2H-benzo[b][1,4]oxazin-7-yl)sulfonyl)-4-(2-((R or S)-2-(2-isopropylphenyl)pyrrolidin-1-yl)-7-azaspiro[3.5]nonan-7-yl)-2-((6-((1-methylazetidin-3-yl)oxy)-1H-pyrrolo[2,3-b]pyridin-5-yl)oxy)benzamide]",1,1,,
"COc1nc2[nH]ccc2cc1Oc1cc(N2CCC3(CC2)CN([C@H]2CCC[C@H]2c2ccccc2C(C)C)C3)ccc1C(=O)NS(=O)(=O)c1cc2c(c([N+](=O)[O-])c1)N[C@@H]([C@H]1CC[C@](C)(O)CC1)CO2 (single isomer, unassigned) [Example D-97, N-(((S)-3-((1r,4S)-4-hydroxy-4-methylcyclohexyl)-5-nitro-3,4-dihydro-2H-benzo[b][1,4]oxazin-7-yl)sulfonyl)-4-(2-((1S,2S or 1R,2R)-2-(2-isopropylphenyl)cyclopentyl)-2,7-diazaspiro[3.5]nonan-7-yl)-2-((6-methoxy-1H-pyrrolo [2,3-b]pyridin-5-yl)oxy)benzamide]",1,12,,
"CCOc1nc2[nH]ccc2cc1Oc1cc(N2CCC3(CC2)CN([C@H]2CCC[C@H]2c2ccccc2C(C)C)C3)ccc1C(=O)NS(=O)(=O)c1cc2c(c([N+](=O)[O-])c1)N[C@@H]([C@H]1CC[C@](C)(O)CC1)CO2 (single isomer, unassigned) [Example D-98, 2-((6-ethoxy-1H-pyrrolo[2,3-b]pyridin-5-yl)oxy)-N-((S)-3-((1r,4S)-4-hydroxy-4-methylcyclohexyl)-5-nitro-3,4-dihydro-2H-benzo[b] [1,4]oxazin-7-yl)sulfonyl)-4-(2-((1S,2S or 1R,2R)-2-(2-isopropylphenyl)cyclopentyl)-2,7-diazaspiro[3.5]nonan-7-yl)benzamide]",1,1,,
"CCOc1nc2[nH]ccc2cc1Oc1cc(N2CCC3(CC2)CN([C@H]2CCC[C@H]2c2ccccc2C(C)C)C3)ccc1C(=O)NS(=O)(=O)c1cnc(NC[C@H]2CC[C@](C)(O)CC2)c([N+](=O)[O-])c1 (single isomer, unassigned) [Example A-161, 2-((6-ethoxy-1H-pyrrolo[2,3-b]pyridin-5-yl)oxy)-N-((6-(((1r,4r)-4-hydroxy-4-methylcyclohexyl)methyl)amino)-5-nitropyridin-3-yl)sulfonyl)-4-(2-((1S,2S or 1R,2R)-2-(2-isopropylphenyl)cyclo-pentyl)-2,7-diazaspiro[3.5]nonan-7-yl) benzamide]",1,2,,
"COCCOc1nc2[nH]ccc2cc1Oc1cc(N2CCC3(CC2)CN([C@H]2CCC[C@H]2c2ccccc2C(C)C)C3)ccc1C(=O)NS(=O)(=O)c1cc2c(c([N+](=O)[O-])c1)N[C@@H]([C@H]1CC[C@](C)(O)CC1)CO2 (racemic) [Example D-75a, N-(((S)-3-((1r,4S)-4-hydroxy-4-methylcyclohexyl)-5-nitro-3,4-dihydro-2H-benzo[b][1,4]oxazin-7-yl)sulfonyl)-4-(2-((1S,2S and 1R,2R)-2-(2-isopropylphenyl)cyclopentyl)-2,7-diazaspiro[3.5]nonan-7-yl)-2-((6-(2-methoxyethoxy)-1H-pyrrolo[2,3-b]pyridin-5-yl)oxy) benzamide]",1,4,,
"CC(C)c1ccccc1[C@@H]1CCC[C@@H]1N1CC2(CCN(c3ccc(C(=O)NS(=O)(=O)c4cc5c(c([N+](=O)[O-])c4)N[C@@H]([C@H]4CC[C@](C)(O)CC4)CO5)c(Oc4cnc5[nH]cc(F)c5c4)c3)CC2)C1 (single isomer, unassigned) [Example D-28, 2-((3-fluoro-1H-pyrrolo[2,3-b]pyridin-5-yl)oxy)-N-(((S)-3-((1r,4S)-4-hydroxy-4-methylcyclohexyl)-5-nitro-3,4-dihydro-2H-benzo[b] [1,4]oxazin-7-yl)sulfonyl)-4-(2-((1S,2S or 1R,2R)-2-(2-isopropylphenyl)cyclopentyl)-2,7-diazaspiro[3.5]nonan-7-yl)benzamide]",1,,13,
"CC(C)c1ccccc1[C@@H]1CCC[C@@H]1N1CC2(CCN(c3ccc(C(=O)NS(=O)(=O)c4cc5c(c([N+](=O)[O-])c4)N[C@@H]([C@H]4CC[C@](C)(O)CC4)CO5)c(Oc4cnc5[nH]cc(F)c5c4)c3)CC2)C1 (single isomer, unassigned) [Example D-28a, 2-((3-fluoro-1H-pyrrolo[2,3-b]pyridin-5-yl)oxy)-N-(((S)-3-((1r,4S)-4-hydroxy-4-methylcyclohexyl)-5-nitro-3,4-dihydro-2H-benzo[b] [1,4]oxazin-7-yl)sulfonyl)-4-(2-((1S,2S or 1R,2R)-2-(2-isopropylphenyl)cyclopentyl)-2,7-diazaspiro[3.5]nonan-7-yl)benzamide]",,,1,1
"CC(C)c1ccccc1[C@@H]1CCC[C@@H]1N1CC2(CCN(c3ccc(C(=O)NS(=O)(=O)c4cc5c(c([N+](=O)[O-])c4)N[C@@H]([C@H]4CC[C@](C)(O)CC4)CO5)c(Oc4cc5cc[nH]c5nc4Cl)c3)CC2)C1 (single isomer, unassigned) [Example D-101, 2-((6-chloro-1H-pyrrolo2,3-b]pyridin-5-yl)oxy)-N-(((S)-3-((1r,4S)-4-hydroxy-4-methylcyclohexyl)-5-nitro-3,4-dihydro-2H-benzo[b] [1,4]oxazin-7-yl)sulfonyl)-4-(2-((1S,2S or 1R,2R)-2-(2-isopropylphenyl)cyclopentyl)-2,7-diazaspiro[3.5] nonan-7-yl)benzamide]",1,19,,
